In patent US9724422B2, “Human lactoferrin derived peptide for use as an antigen masking agent” (Evonik Roehm GmbH, priority 2010, dated 2017):

Legend:
[1] = Zeta potential of particles measured with Zetasizer; type: physicochemical; details: PBS pH 7.4, FIG. 2
Description: (§1) Malvern Zetasizer Nano ZS90; Size parameters:
(§2) Material: Protein RI: 1.45 Absorption: 0.00, Dispersant: Water 25° C.: 0.8872 cP RI: 1.330; 37° C.: 0.6864 cP RI: 1.330, Cell: DTS 1060C: Clear disposable zeta cell
(§3) Measurement: Automatic 3 runs, positioning method: seek for optimum position, automatic attention selection, analysis model: general purpose
Zeta parameters: Dielectric constant: 78.5 at 25° C. and 74.4 at 37° C.
Model: Smoluchowski F(KA)value: 1.5, measurement: automatic 3 runs Automatic attention selection
(§4) Peptide oxidation: The peptide was dissolved to a concentration below 1 mM (2.75 mg/mL) in phosphate buffered saline (PBS), pH 7.4. (Ph. Eur.), e.g., 5 mg in 10 mL (=0.5 mg/mL). The solution was purged with pure oxygen for 5 minutes at 37° C. Incubate for 2 h at 37° C.
(§5) For the bacterial lysate dilution 1 mL of bacterial cell lysate were diluted up to 10 mL with PBS pH 7.4. (Ph. Eur.).
(§6) Attachment to the lysate particles was achieved by adding 1 ml bacterial lysate (=1.2 mg E. coli) with 0.097714286 mg hLF.
(§7) 20 μL of a 0.5 mg/mL solution of peptide were added to 1 mL of the previously diluted vaccine (0.12 mg/mL) and incubated 2 hours under low stirring, 100-150 rpm, at 4° C., preventing any foam building

[2] = Particle size (diameter) measured with Zetasizer; type: physicochemical; details: PBS pH 7.4, FIG. 1
Description: as §1, §2, §3, §4, §5, §6, §7

[3] = test system: IgG immuno response; assay: Total IgG by ELISA in rats treated with bacterial lysate, hLf fragment or their combination; type: in vivo
Description: Bacterial lysate: Klebsiella pneumoniae CECT 141; 12.000 million bacteria/mL (ten times the final concentration), Standard non-glycerinated formulation, without phenol hLF fragment, […] (SEQ ID NO: 1) oxidised form, as lyophilisate product; dosed in vials of 50 mg each, in 25 mL vials, to be reconstituted and used as stock solution for the length of the assay. Once reconstituted, keep cooled (4° C.)
Reconstitution of the hLF stock solution was performed by reconstitution of the 50 mg hLF fragment in a vial by addition of 20 mL of PBS. It was ensured a complete, proper reconstitution to a clear, homogeneous, particle-free solution. The vial was gently shaken by repeated inversion of the closed vial. The result was the hLF-stock solution for the trial: nominal concentration 2.5 mg/mL.
The hLF dilution for the animal trial was performed daily. For this 1 mL of the reconstituted hLF stock solution were transferred into a new 25 mL vial, followed by adding 21.5 mL of PBS and carefully mixing by repeated inversions of the closed vial to avoid foam formation. The result was the daily stock dilution, nominal concentration 0.1 mg/ml.
4.5 ml of the daily hLf dilution were transferred to a suitable vial (5 ml capacity or bigger), followed by adding 0.5 ml of the 12,000 million bacteria/mL bacterial lysate, and carefully mixing by repeated inversions of the closed vial to avoid foam formation. The result was 5 ml of A+B vaccine, 1200 million bacteria/ml, 0.1 mg hLf fragment/ml, ensuring the ratio 12:1.
4.5 ml of the daily hLf dilution were transferred to a suitable vial (5 ml capacity or bigger), followed by adding 0.5 ml of PBS and carefully mixing by repeated inversions of the closed vial and avoid foam formation. The result was 5 ml of 0.1 mg/ml hLf fragment solution.
0.5 ml of the bacterial lysate (12,000 million bacteria/ml) were transferred to a suitable vial (5 ml capacity or bigger), followed by adding 4.5 ml of PBS, and carefully mixing by repeated inversions of the closed vial and avoid foam formation. […]
The parameter to be measured is total IgG. […]

[4] = molecular target: T1, Albumin (Bos taurus, UniProt P02769); assay: Diffusion kinetics of hLf fragment mixed with protein, time-correlation confocal microscopy with fluorescent labels; type: binding; details: protein I
T1 construct: purchased
Excerpt: (§8) 3 different classes of cell-culture and blood derived naturally glycosylated proteins were mixed together in a native, that is, physiologically similar standard electrolyte buffer with the concentration shown in the Table with the same 22-mer of the human-lactoferrin peptides described above (using Sequence […] (SEQ ID NO: 1)).
(§9) The protein I is Albumin a blood protein fraction, known in its recombinant human version or as blood-product, protein II is a selective IgG antibody. Both from commercial sources. hLf as the reference moves as “free” in the volume element of the focus of the microscope whereas about 4% or 15% respectively of the fragment are unspecifically bound and moves slower.

[5] = test system: IgG antibody; assay: as above; type: binding; details: protein II, selective IgG antibody
Excerpt: as §8, §9

[6] = Diffusion kinetics of free hLf fragment (reference), time-correlation confocal microscopy with fluorescent labels; type: physicochemical; details: hLf alone as reference
Excerpt: as §8, §9

T1 sequence (P02769 25-607): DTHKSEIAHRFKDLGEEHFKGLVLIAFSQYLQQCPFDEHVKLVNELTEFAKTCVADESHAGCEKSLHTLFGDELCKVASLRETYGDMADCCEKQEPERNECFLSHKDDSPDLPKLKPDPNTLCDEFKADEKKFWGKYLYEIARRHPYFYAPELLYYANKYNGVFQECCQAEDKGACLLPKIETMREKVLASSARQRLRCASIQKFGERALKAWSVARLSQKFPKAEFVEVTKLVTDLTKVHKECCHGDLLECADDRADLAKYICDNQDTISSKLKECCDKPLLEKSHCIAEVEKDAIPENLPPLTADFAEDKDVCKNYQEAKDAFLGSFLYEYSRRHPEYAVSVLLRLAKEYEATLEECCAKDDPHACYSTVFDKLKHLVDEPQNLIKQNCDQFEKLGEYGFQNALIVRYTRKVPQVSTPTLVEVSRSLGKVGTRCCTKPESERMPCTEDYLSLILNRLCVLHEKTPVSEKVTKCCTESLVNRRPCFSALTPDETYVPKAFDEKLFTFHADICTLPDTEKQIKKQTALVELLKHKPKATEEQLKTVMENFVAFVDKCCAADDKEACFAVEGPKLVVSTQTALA

KCFQWQRNMRKVRGPPVSCIKR (listed as Homo sapiens) [hLf, human lactoferrin derived peptide, 22-mer, used as antigen masking agent]
Zeta potential (surface charge of particles) [1]: overall positive charge | Particle size (aggregation) [2]: Aggregation is prone to occur | Variation in the IgG levels over time ([3]; independent of the mode of administration (i.p. or intragastric), days 0-27): does not appear to induce any effect on IgG levels over time | IgG levels compared with hLf+extract group ([3]; intragastric, day 6): superior IgG levels | IgG levels compared with control group ([3]; intraperitoneal, day 6 to day 27): no statistically significant difference | fragment unspecifically bound (moves slower) [4]: about 4% | fragment unspecifically bound (moves slower) [5]: ~15% | TauD1 [6]: 33 us | TauD2 [6]: 1419 us | f1 [6]: 99%
